Laboratory results as given in patent US9295630B2, “Vitamin C complexes” (CENTRE NATIONAL DE LA RECHERCHE SCIENTIFIQUE, priority 2012, dated 2016).
pIC50: −log10 of the molar value. Read-outs that look alike come from different tables or passages of the source.

Legend:
Assay type in all cases: cell-based
[1] = test system: neutral GAGs; experiment: Expression of neutral GAGs in human skin explants (alcian blue/PAS staining); settings: topical, D10, relative to control No. 0
Description: (§1) Explants of human skin with a diameter of about […], obtained from surgical waste from cosmetic surgery and more particularly from abdominoplasty of women about thirty years of age, are used. The human skin is kept alive in a usual nutrient medium at 37° C. in humid atmosphere, enriched with 5% CO2, for ten days.
(§2) The explants of human skin are treated using a gel according to the invention comprising the VitC-SQ complex or conjugate according to the invention obtained in example 1a formulated in squalene as described in example 3 to obtain compositions comprising 1 wt % and 3 wt % respectively, expressed as weight of vitamin C active ingredient relative to the total weight of the composition. To obtain values of 1% and 3% respectively, expressed as weight of vitamin C, the concentration of the VitC-SQ complex is adjusted accordingly.
(§3) These two active ingredients are used at a concentration of 1 wt % and 3 wt %, expressed as weight of vitamin C active ingredient relative to the total weight of the composition.
(§4) Each of the compositions tested is applied topically, at a rate of 2 mg per explant, on the explants of human skin using a spatula on day zero (DO), then at 1 day (D1), at 3 days (D3), at 6 days (D6) and finally at 8 days (D8).
(§5) On the tenth day, the explants treated with each of the compositions are taken and are submitted to the same conditions as the explants of control No. 0.
(§6) Neutral GAGs, reservoirs of the growth factors near the dermal-epidermal junction, and acid GAGs, essentially hyaluronic acid, are examined on paraffin sections after staining with alcian blue/PAS (Mowry staining)

[2] = test system: type III collagen; experiment: Expression of type III collagen in human skin explants (immunolabeling); settings: gel at 3 wt % as vitamin C, topical, D10, relative to control No. 0
Description: (§7) For this assessment, only certain of the explants of human skin described above are used. More particularly, they are untreated explants (control No. 0) and explants treated with VitC-SQ according to the invention at 3 wt %, with free vitamin C at 3 wt % (control No. 1) and with VitC-palm at 3 wt % (control No. 2), expressed as weight of vitamin C active ingredient relative to the total weight of the composition.
(§8) The microscopic observations are carried out in light microscopy, using a Leica microscope, type DMLB, with x 40 objective. The images were recorded with an Olympus DP72 camera, using Olympus Cell^D acquisition and archiving software.
Regarding the labeling of type III collagen, the latter is labeled on sections in paraffin (fixation with formol) with a goat anti-human collagen III polyclonal antibody (SBA ref: 1330-01), at 1/50th overnight at room temperature using a Vectastain RTU Universal VECTOR avidin/biotin amplifier system, detected in diaminobenzidine (DAB) with the nuclei counterstained with Masson's hemalum.

[3] = test system: type I collagen; experiment: Expression of type I collagen in human skin explants (immunolabeling); settings: gel at 3 wt % as vitamin C, topical, D10, relative to control No. 0
Description: as §7, §8
Type I collagen is labeled on frozen sections with a rabbit anti-human collagen I antibody (Monosan ref PS047, polyclonal), at 1/800th for 1 hour at room temperature with a biotin/streptavidin amplifier system, detected by fluorescence (FITC caltag SA 1001). The nuclei were counterstained with propidium iodide.

[4] = test system: acid GAGs; experiment: Expression of acid GAGs in human skin explants (alcian blue/PAS staining); settings: topical, D10, relative to control No. 0
Description: as §1, §2, §3, §4, §5, §6

[5] = test system: explants of human skin; experiment: General morphology / acanthosis of human skin explants (Masson's trichrome staining); settings: for dermal stimulation / epidermal stimulation: topical, D10, relative to control No. 0
Description: as §1, §2, §3, §4, §5
After 48 hours of fixation in ordinary Bouin, the samples are dehydrated and impregnated with paraffin using a Leica 1020 automatic dehydrator. Then they are made into a block according to procedure MO-H-153 using a Leica EG 1160 coating station.
5-μm sections are prepared using a Minot type microtome, Leica RM 2125, and are glued on superfrost silanized glass histology slides.
Microscopic observations are performed in light microscopy, using a Leica microscope of the Orthoplan type, with x 25 and x 40 objectives. The images are recorded with a Sony DXC 390P tri CCD camera and are stored using Leica IM1000 data archiving software.
Acanthosis of the skin, and more generally observation of the general morphology is carried out on sections in paraffin after staining with Masson's trichrome, Goldner's variant, according to procedure MO-H-157.

[6] = test system: CCD34SK human fibroblasts; experiment: Test of cellular viability (MTT assay); settings: for pIC50: 4 h incubation then 48 h, read-out: IC50 (loss of 50% in cellular viability)
Description: 10 000 cells of CCD34SK human fibroblasts per well were seeded in a 96-well plate.
The test products are added to the wells in different concentrations. After 4 h of incubation, the culture medium is replaced with new biological medium and the cells are incubated for 48h at 37° C. and 5% CO2.
Then, the culture medium is removed by inverting and 100 μL, of PBS/well with MTT at a concentration of 0.5 mg/ml is added. The plate is put back in the incubator for 2 h at 37° C. and 5% CO2. In order to dissolve the dark blue crystals of formazan that have formed, 100 μL of a solution of SDS (sodium dodecyl sulfate) is added to each well and then the plate is incubated again for 12 h at 37° C. and 5% CO2.
At the end of the 12 h, spectrophotometric measurements are carried out on an ELISA plate reader at a wavelength of 570 nm. The percentage viability of the cells in the presence of the test molecules is then calculated from the following formula: (mean OD of the treated cells—OD of control with medium only/mean OD of the control cells (100% viability)—OD of control with medium only)×100±standard deviation; or presented in the form of curves plotting the evolution of absorbance as a function of time.
The IC50 values (“inhibitory concentration 50%” or the concentration that inhibits growth of 50% of the cells) then correspond to a product concentration tested generating a loss of 50% in cellular viability (see Table below).

Structure (SMILES)	overexpression of neutral GAGs ([1]; gel at 1 wt % as vitamin C)	overexpression of neutral GAGs ([1]; gel at 3 wt % as vitamin C)	expression of type III collagen [2]	expression of type I collagen [3]	overexpression of epidermal acid GAGs ([4]; gel at 1 wt % as vitamin C)	overexpression of epidermal acid GAGs ([4]; gel at 3 wt % as vitamin C)	effect on skin explants (overall) ([5]; dose less than or equal to 3 wt % as vitamin C)	dermal stimulation ([5]; gel at 1 wt % as vitamin C)	epidermal stimulation ([5]; gel at 1 wt % as vitamin C)	dermal stimulation ([5]; gel at 3 wt % as vitamin C)	epidermal stimulation ([5]; gel at 3 wt % as vitamin C)	pIC50 [6]	toxicity relative to VitC-palm [6]	pIC50 ([6]; Fibroblast)	dermal and epidermal stimulation compared with VitC-Palm ([5]; at equivalent dose of vitamin C)
O=C1OC(C(O)CO)C(O)=C1O (centres unmarked) [Free vitamin C, 5-(1,2-dihydroxy-ethyl)-3,4-dihydroxy-5H-furan-2-one]	No overexpression of neutral GAGs	No overexpression of neutral GAGs	No overexpression of type III collagen	No overexpression of type I collagen	No overexpression of epidermal acid	No overexpression of epidermal acid	no effect	No dermal stimulation	No epidermal stimulation	Moderate dermal stimulation	No epidermal stimulation				
CCCCCCCCCCCCCCCC(=O)OC[C@H](O)[C@H]1OC(=O)C(O)=C1O [VitC-palm, 6-ascorbyl palmitate]	Slight overexpression of neutral GAGs	Very moderate overexpression of neutral	Very slight overexpression of type III	No overexpression of type I collagen	No overexpression of epidermal acid	No overexpression of epidermal acid		No dermal stimulation	No epidermal stimulation	Moderate dermal stimulation	No epidermal stimulation	3.60			
CC(C)=CCCC(C)=CCCC(C)=CCCC=C(C)CCC=C(C)CCC(=O)OC[C@H](O)[C@H]1OC(=O)C(O)=C1O [VitC-SQ, 6-O-[4,8,13,17,21-pentamethyl-docosa-4,8,12,16,20-pentaenoyl] ascorbic acid]	Slight overexpression of neutral GAGs	Definite overexpression of neutral GAGs	Slight overexpression of type III collagen	Slight underexpression of type I collagen	No overexpression of the epidermal acid GAGs	No overexpression of epidermal acid		Moderate dermal stimulation	Slight epidermal stimulation	Fairly definite dermal stimulation	Definite epidermal stimulation		half as toxic as VitC-palm	3.22	greater than VitC-Palm
